Results on 6 molecules are retold here after patent publication US20200360332A1, “COMPOUND FOR USE IN THE INCREASING OF MENTAL CAPACITY” (LEIBNIZ-INSTITUT FUER NEUROBIOLOGIE (LIN) STIFTUNG DES …, priority 2017, published 2020).

SMILES strings stand for the structures.

Assay [1] deals with Drosophila melanogaster larvae. Nature of the assay: Learning experiment E (scent/fructose reward) with Drosophila melanogaster larvae raised on feed mash containing the compound. The note with it: for improvement in learning capability compared with FSE-20 (summary statement): Drosophila larvae, effect of FSE-20>FSE-16>>FSE-8; for learning and memory capability P vs control K (Example 2): 7.1×10^−7 M (700 nM) final concentration in feed mash. In kind it is in vivo. The method, then:
Depicted in FIG. 1A is an overview of a learning experiment E with Drosophila melanogaster larvae. […] One group represents the control group K, which was raised with standard feed mash, and the three other groups were each raised with different concentrations of FSE-20 (7.1×10^−8, 7.1×10^−7, and 7.1×10^−6[M] FSE-20) in the feed mash. After 5 days (arrow with “5d”), the learning experiment E was carried out. In the learning experiment E, the animals were each subjected to one of two inverse training regimens A and then subjected to a test B. The first group I was presented in training A with a first scent with the feed reward (fructose), while a second scent was presented alone (first scent+/second scent). In FIG. 1A, the first scent is depicted as a white square and the second scent as a black square. […] The second group II was trained inversely (first scent/second scent+). In test B of the learning experiment E, it was subsequently examined whether the larvae of the two groups I, II prefer the first scent or the second scent in a selection situation and thus their learning and memory capability (performance index) P was determined. Shown in FIG. 2A is an overview with the compounds used in this example as additions to the feed mash. One group of the Drosophila melanogaster larvae was the control group K, which was raised with standard feed mash. Furthermore, one group was raised with FSE-20 in a concentration of 7.1×10^−7 M in the feed mash. The other groups were raised with a concentration of 7.1×10^−7 M of the different FSE-20 derivatives in the feed mash. These FSE-20 derivatives comprise FSE-8, FSE-12, FSE-16, 4OH-ZSE-20, and DH-FSE-20. After five days (arrow with “5d”), the Drosophila melanogaster larvae were tested in the learning experiment E, as described in Example 1.

The subject of assay [2] is older Drosophila melanogaster flies. Nature of the assay: Learning experiment E with mature, older Drosophila melanogaster flies fed FSE-20. The assay is classed as in vivo. The protocol: In this experiment, the flies were divided into two groups, a control group K, which was fed with standard feed, and a test group, for which FSE-20 was added to the feed. The concentration of FSE-20in the feed was 7.1×10^−7 M. The flies were tested in a learning experiment E, corresponding to the principle of Example 1, 15 days (arrow with “15d”) after the adult animals had hatched.

A further assay concerns mice. The experiment in a line: Learning experiment E in mice (conditioned fear, freezing) after intraperitoneal injection. In kind it is in vivo. The note with it: 6 mg/kg i.p. prior to training. The method, then: In order to determine the effect of FSE-20 on the learning and memory capability P in 3- to 4-month-old mice, the animals underwent intraperitoneal injection with an FSE-20 solution (6 mg/kg body weight) prior to the training A. In the learning experiment E on the next day, the animals were placed in a specific environment during the training A, while the mice were subjected at the same time to an aversive electrical stimulus (lightning symbol). Subsequently, in the first test B-1 one day later (1 d), the nonspecific fear reaction (freezing) F was measured in a neutral environment, that is, in an environment that was new for the animals. In the second test B-2, two hours (2 h) after the first test B-1, the fear reaction in the environment was measured, in that the animals were presented with the electrical stimulus during the training A (conditioned environment).
Shown in FIG. 4B is a graphic illustration that summarizes the results of the learning experiment E on mice. […] The first span of time of the second test comprises the 1st-5th minute and the second span of time comprises the 6th-10th minute. The result of the first span of time is represented as black bars and the result of the second span of time is represented as white bars with black longitudinal stripes.

The subject of assay [3] is hippocampal CA1 mouse cells. Nature of the assay: Ex vivo patch-clamp electrophysiological recordings on hippocampal CA1 pyramidal cells. In kind it is cell-based, mice. As to conditions: for number of action potentials vs control K: current intensities of 40 to 440 pA. The protocol: The patch-clamp method was carried out on whole CA1 pyramidal cells from “acute” (freshly prepared) hippocampus slices of four-to-six-week-old male mice in order to measure the effects of FSE-20 on neuronal excitability.
Shown are the action potentials of the control K as well as those of the cells treated with FSE-20.
Depicted in FIG. 5B is a graphic illustration in which the number of action potentials is shown in relation to the injected current intensity (pA) of the differently treated cells and of the control group K.

As to `CCCCCCCCCCCCCCCCCCCCOC(=O)/C=C/c1ccc(O)cc1` [4OH-ZSE-20, icosyl (2E)-3-(4-hydroxyphenyl)prop-2-enoate], in assay [1], the “improvement in learning capability compared with FSE-20 (summary statement)” value is “weaker, but still marked activity”. For the same molecule, the “learning and memory capability P vs control K (Example 2)” value in assay [1] (larvae, 5 days) is recorded as “slight increase”.

With `CCCCCCCCCCCCCCCCCCCCOC(=O)CCc1ccc(O)c(OC)c1` [DH-FSE-20, icosyl 3-(4-hydroxy-3-methoxyphenyl)propanoate], in assay [1], the “improvement in learning capability compared with FSE-20 (summary statement)” value is reported as “less pronounced”. The “learning and memory capability P vs control K (Example 2)” value in assay [1] (larvae, 5 days) is “increases learning and memory”.

On to `CCCCCCCCOC(=O)/C=C/c1ccc(O)c(OC)c1` [FSE-8, octyl (2E)-3-(4-hydroxy-3-methoxyphenyl)prop-2-enoate], for which, in assay [1], the “improvement in learning capability compared with FSE-20 (summary statement)” value is given as “less pronounced”. Further, the “learning and memory capability P vs control K (Example 2)” value in assay [1] (larvae, 5 days) is “increases the learning and memory capability P”.

For `CCCCCCCCCCCCOC(=O)/C=C/c1ccc(O)c(OC)c1` [FSE-12, dodecyl (2E)-3-(4-hydroxy-3-methoxyphenyl)prop-2-enoate], the “learning and memory capability P vs control K (Example 2)” value in assay [1] (larvae, 5 days) is “slight increase”.

Consider `CCCCCCCCCCCCCCCCOC(=O)/C=C/c1ccc(O)c(OC)c1` [FSE-16, hexadecyl (2E)-3-(4-hydroxy-3-methoxyphenyl)prop-2-enoate], for which the “improvement in learning capability compared with FSE-20 (summary statement)” value in assay [1] is “less pronounced”. Also, the “learning and memory capability P vs control K (Example 2)” value in assay [1] (larvae, 5 days) is reported as “increases learning”.

In the case of `CCCCCCCCCCCCCCCCCCCCOC(=O)/C=C/c1ccc(O)c(OC)c1` [FSE-20, icosyl (2E)-3-(4-hydroxy-3-methoxyphenyl)prop-2-enoate], the “learning and memory capability of larvae (summary statement)” value in assay [1] (added to feed of larvae) is on record as “significantly in a dose-dependent manner”. For the same molecule, the “concentration at which an effect is seen” value in assay [1] (in feed mash) was determined as 700 nM. Besides, the “improvement of learning and memory capability P” value in assay [1] (larvae, 700 nM in feed mash, 5 days) is reported as “approximately 50%”. Moreover, the “learning and memory capability P vs control K (Example 2)” value in assay [1] (larvae, 5 days) is “marked increase”. Besides, the “learning and memory capability P (performance index) vs control K” value in assay [1] (larvae, 7.1×10^−8, 7.1×10^−7 or 7.1×10^−6 M in feed mash, 5 days) is “increased”. The “learning and memory capability P” value is reported as “declines once again” in assay [1] (larvae, very high concentrations starting at 7 μM in feed mash, 5 days) and “increase in learning tendency” in assay [1] (larvae, very low concentration, 70 nM in feed mash, 5 days). In assay [2] (7.1×10^−7 M in feed, tested 15 days after hatching), the “improvement of learning and memory capability P in older animals” value is listed as “approximately 50%”. In assay [2] (FSE-20 in feed), the “learning capability of older flies (summary statement)” value was “doubled”. Also, the “fear behavior (freezing) F in second half (6th-10th minute) compared with first half (1st-5th minute)” value in the assay on mice (mice 3-4 months, second test B-2, conditioned environment) is listed as “just as strongly pronounced”. For the same molecule, the “memory stability vs control” value in the assay with mice (mice) is given as “more stable memory over time”. For the same molecule, the “number of action potentials vs control K” value in assay [3] (1 μM) and in assay [3] (4 μM) was “increased significantly” each time. For the same molecule, in assay [3] (ex vivo, summary statement), the “excitability of pyramidal CA1 hippocampus cells” value is listed as “increases in a dose-dependent manner”.
